Test system: Plasmodium berghei
Test: Luciferase/luciferin-expressing antifolate-resistant parasites were used to infect a culture of HepG2 cells that were pre-incubated with compounds. Infected hepatocytes emit light due to the luciferase reaction. Assay results are presented as the percent inhibition of light emission compared to control. […]
Format: functional
Details: sporozoite; for IC50: read-out: LUCIFERASE INFECTION ASSAY - IC50; for IC90: read-out: LUCIFERASE INFECTION ASSAY - IC90

## Cc1ccc2nc(C(F)(F)F)c(C(=O)NCc3cc(Cl)cc(Cl)c3)n2c1
  IC50: > 8.2 µM
  IC90: > 8.2 µM

## Cc1cccc(OC2CCN(C(=O)NCc3cc[nH]n3)CC2)c1C
  IC50: > 10 µM
  IC90: > 10 µM

## CCOC(=O)c1ccc(S(=O)(=O)N2CCC(N(C)C)CC2)cc1
  IC50: > 10 µM
  IC90: > 10 µM

## O=C(Nc1cccc(F)c1)N1CCC2(CC1)OCc1cc(-c3ccco3)ccc1O2
  IC50: > 8.08 µM
  IC90: > 8.08 µM

## O=C1CN(c2ccc(NC(=O)CCc3ccco3)cn2)CCN1
  IC50: > 10 µM
  IC90: > 10 µM

## CN1CCCN(c2ccc(NC(=O)OCC(F)(F)F)cc2F)CC1
  IC50: > 10 µM
  IC90: > 10 µM

## COc1cccc(CC(=O)N2CCCC(C(=O)NCC3CC3)C2)c1 (configuration not stated)
  IC50: > 10 µM
  IC90: > 10 µM

## O=S(=O)(Nc1nn(Cc2ccc(C(F)(F)F)cc2)c2ccccc12)c1cccc2nsnc12
  IC50: > 6.74 µM
  IC90: > 6.74 µM

## CC(C)c1nccn1Cc1cccc(NC(=O)c2ccc(Br)o2)c1
  IC50: > 10 µM
  IC90: > 10 µM

## CC(NC(=O)CN1CCCc2c(F)cc(F)cc21)c1ccco1 (configuration not stated)
  IC50: > 10 µM
  IC90: > 10 µM

## CS(=O)(=O)N1CCCC(C(=O)NC(c2ccccc2)C2CCCCC2)C1 (configuration not stated)
  IC50: > 10 µM
  IC90: > 10 µM

## CC(C)c1noc(CCC(=O)Nc2ccc(F)cc2F)n1
  IC50: > 10 µM
  IC90: > 10 µM

## CCSc1nc2scc(C(F)(F)F)n2c(=O)c1C(=O)N1CC(C)CC(C)C1 (configuration not stated)
  IC50: > 7.87 µM
  IC90: > 7.87 µM

## O=C(Nc1cccc2c[nH]nc12)c1cn(-c2ccccc2Br)nn1
  IC50: > 10 µM
  IC90: > 10 µM

## CC1CCc2ccccc2N1CC(=O)N(CCC(N)=O)Cc1ccccc1 (configuration not stated)
  IC50: > 10 µM
  IC90: > 10 µM

## COc1cc(C)ccc1Oc1ccc(NC(=O)NC2CCN3CCCCC23)cn1 (configuration not stated)
  IC50: > 10 µM
  IC90: > 10 µM

## COc1ccc(NC(=O)c2cccc(Cl)c2)cc1OCc1cccnc1
  IC50: > 10 µM
  IC90: > 10 µM

## CCN(Cc1cccc(F)c1)C(=O)Nc1ccccc1-n1nc(C)cc1C
  IC50: > 10 µM
  IC90: > 10 µM

## CCc1nc(COC(=O)c2c(C)nsc2NC)cs1
  IC50: 1.53 µM
  IC90: 5.52 µM

## CC(=O)c1csc(NC(=O)c2cc(C(C)C)nc3c2c(C)nn3C(C)(C)C)n1
  IC50: > 10 µM
  IC90: > 10 µM

## CC(C)Sc1ncccc1C(=O)N1CCN(c2oc(C3CC3)nc2C#N)CC1
  IC50: > 10 µM
  IC90: > 10 µM

## O=C(Nc1nnc[nH]1)C1(c2ccc(F)cc2)CC1
  IC50: > 10 µM
  IC90: > 10 µM

## CC(=O)NCCc1nccn1Cc1ccccc1
  IC50: > 10 µM
  IC90: > 10 µM

## COc1ccc(Sc2ccc(NC(=O)C(C)n3ccnc3)cc2Cl)cc1 (configuration not stated)
  IC50: > 10 µM
  IC90: > 10 µM

## Cc1nc(NC(=O)c2ccc(-n3ccnc3)nc2)sc1SCC#N
  IC50: > 10 µM
  IC90: > 10 µM

## Cc1cc(C(=O)NC(C)Cc2ccc(Br)cc2)on1 (configuration not stated)
  IC50: > 10 µM
  IC90: > 10 µM

## Cc1ccccc1S(=O)(=O)Nc1nccnc1N1CCN(S(=O)(=O)c2cccc3ccccc23)CC1
  IC50: > 6.3 µM
  IC90: > 6.3 µM

## O=C(Nc1nc(-c2cccs2)cs1)c1c[nH]c(C(=O)N2CCCC2)c1
  IC50: > 10 µM
  IC90: > 10 µM

## CCOC(=O)Nc1cccc(N)c1C
  IC50: > 10 µM
  IC90: > 10 µM

## O=C(CNc1ccccc1-c1ccccc1)NCC(F)(F)F
  IC50: > 10 µM
  IC90: > 10 µM

## FC(F)(F)Oc1ccc(Nc2cc(-c3cccc(Cl)c3)ncn2)cc1
  IC50: > 9.02 µM
  IC90: > 9.02 µM

## Cc1ccc(Br)cc1NC(=O)C(C)NC(=O)OC(C)(C)C (configuration not stated)
  IC50: > 10 µM
  IC90: > 10 µM

## CCOC(=O)c1c[nH]nc1S(=O)(=O)Nc1ccc[nH]c1=O
  IC50: > 10 µM
  IC90: > 10 µM

## CCOc1ccc(N2CC(C(=O)N3CCCC(c4nc(C)no4)C3)CC2=O)cc1 (configuration not stated)
  IC50: > 10 µM
  IC90: > 10 µM

## Cc1ccccc1C(c1ncccc1C)N(C)C(=O)C1CCN(C(=O)c2cccc(Cl)c2)CC1 (configuration not stated)
  IC50: > 6.93 µM
  IC90: > 6.93 µM

## CC1CCN(C(=O)CSC(F)(F)F)CC1
  IC50: > 10 µM
  IC90: > 10 µM

## Cc1cc(C)c(NC(=O)NCCCOCC(C)C)c(Cl)c1
  IC50: > 10 µM
  IC90: > 10 µM

## Cn1cnnc1C1CCCN(S(C)(=O)=O)C1 (configuration not stated)
  IC50: > 10 µM
  IC90: > 10 µM

## COc1cccc(CN2CCC2(C)C(=O)Nc2ccccc2Cc2ccccc2)c1OC (configuration not stated)
  IC50: > 7.66 µM
  IC90: > 7.66 µM

## Cc1ccsc1C(=O)Nc1ccc(N2CCN(C)CC2)cn1
  IC50: 0.0143 µM
  IC90: 0.343 µM

## Cc1ccc(S(=O)(=O)CCC(=O)OCC(=O)NCC2CCCO2)cc1 (configuration not stated)
  IC50: > 10 µM
  IC90: > 10 µM

## Cc1cc(=O)n2nc(COC(=O)c3ccccc3Nc3ccccc3)sc2n1
  IC50: > 10 µM
  IC90: > 10 µM

## COc1cccc(C(=O)Nc2cccc(Nc3ccc(-c4cc(OC)c(OC)c(OC)c4)cn3)c2)c1
  IC50: > 6.8 µM
  IC90: > 6.8 µM

## CCc1nnc(Sc2ncnc3ccsc23)[nH]1
  IC50: > 10 µM
  IC90: > 10 µM

## CCCOc1ccc2ccccc2c1CN(C)c1cncc(-n2cccn2)n1
  IC50: > 10 µM
  IC90: > 10 µM

## O=C(COC(=O)Cc1ccsc1)Nc1cc(Cl)ccc1-n1cncn1
  IC50: > 10 µM
  IC90: > 10 µM

## CC(C)c1ccc(CS(=O)(=O)C(C)C(=O)NC2CCCC2)cc1 (configuration not stated)
  IC50: > 10 µM
  IC90: > 10 µM

## Clc1ccc(OCc2cccnc2)c(CN2CCN(c3ncccn3)CC2)c1
  IC50: > 10 µM
  IC90: > 10 µM

## CN(C)C(=O)CC(NC(=O)Nc1ccc(F)cc1F)c1ccccc1 (configuration not stated)
  IC50: > 10 µM
  IC90: > 10 µM

## CCn1c(NC(=O)C2=NOC(c3ccccc3)C2)nc2ccccc21 (configuration not stated)
  IC50: 3.35 µM
  IC90: 3.82 µM

## CN(C)c1ccc(C(=O)Oc2ccc(-c3nnco3)cc2)cn1
  IC50: > 10 µM
  IC90: > 10 µM

## CN(C)C(=O)Cc1nc(CSc2nc3ncccn3n2)cs1
  IC50: > 10 µM
  IC90: > 10 µM

## CNS(=O)(=O)Cc1ccccc1CNCc1cccc(Oc2ccccc2)c1
  IC50: > 10 µM
  IC90: > 10 µM

## Cc1cc(Cl)ccc1NC(=O)c1cn(C)nc1C(F)(F)F
  IC50: > 10 µM
  IC90: > 10 µM

## COc1ccc(-c2ccc3c(c2)COC2(CCN(C(=O)c4cc(F)ccc4C)CC2)O3)cc1OC
  IC50: > 6.91 µM
  IC90: > 6.91 µM

## Cn1ccnc1CN(C(=O)c1cnn(-c2ccccc2)c1)C1CC1
  IC50: > 10 µM
  IC90: > 10 µM

## CC(=O)Nc1nc(C(=O)Nc2nc3ccccc3n2C2CCCCC2)cs1
  IC50: > 10 µM
  IC90: > 10 µM

## COc1ccc(C(N)=O)cc1NC(=O)NCc1ccc(N2CCCCCC2)nc1
  IC50: > 10 µM
  IC90: > 10 µM

## Cc1onc(-c2ccccc2)c1C(=O)NCC1COCCO1 (configuration not stated)
  IC50: > 10 µM
  IC90: > 10 µM

## CNC(=O)NC(=O)C(C)N1CCN(CCc2cccs2)CC1 (configuration not stated)
  IC50: > 10 µM
  IC90: > 10 µM

## COc1cccc(C(=O)Nc2cccc(Nc3ccc(-c4cccc(NC(C)=O)c4)cn3)c2)c1
  IC50: > 7.29 µM
  IC90: > 7.29 µM

## CNc1snc(C)c1C(=O)OCc1nc(C(C)C)no1
  IC50: 6.11 µM
  IC90: 6.24 µM

## CCOc1cc(C(=O)N2CCOCC2)ccc1OCc1cccnc1
  IC50: > 10 µM
  IC90: > 10 µM

## Cc1cccc(NC(=O)N2CCC3(CC2)OCc2cc(-c4ccc(OC(F)(F)F)cc4)ccc2O3)c1
  IC50: > 6.62 µM
  IC90: > 6.62 µM

## Cc1ccc(-c2csc(NC(=O)CCn3ccnc3)n2)c(C)c1
  IC50: > 10 µM
  IC90: > 10 µM

## Cc1nc2sccn2c1C(=O)NCc1ccccc1Oc1ccccc1
  IC50: > 9.08 µM
  IC90: > 9.08 µM

## CC(=O)c1c(C)cc(C)c(CN2C(=O)CN(c3ccccc3)C2=O)c1C
  IC50: > 10 µM
  IC90: > 10 µM

## O=C(Nc1cccc(Cn2ccnc2)c1)c1nn(-c2ccccc2)c2c1CCC2
  IC50: > 10 µM
  IC90: > 10 µM

## Nc1cccc(OCc2cccnc2)c1
  IC50: > 10 µM
  IC90: > 10 µM

## Cc1cc(NC(=O)CCc2ccc(C)c(Cl)c2)n(C)n1
  IC50: > 10 µM
  IC90: > 10 µM

## Cn1c(Cn2nnc(-c3cccc(F)c3)n2)nc2ccccc2c1=O
  IC50: > 10 µM
  IC90: > 10 µM

## CC(Cn1cccn1)NCc1ccc(F)c(F)c1 (configuration not stated)
  IC50: > 10 µM
  IC90: > 10 µM

## CN(C)c1ccc(CNC(=O)C2CCN(C(=O)NCc3ccco3)CC2)cc1
  IC50: > 10 µM
  IC90: > 10 µM

## CC(C)c1noc(COC(=O)c2ccc(-c3ccc(O)cc3)cc2)n1
  IC50: > 10 µM
  IC90: > 10 µM

## CCCS(=O)(=O)N1CCC(NC(=O)c2scnc2C)CC1
  IC50: > 10 µM
  IC90: > 10 µM

## CC(=O)c1cc2c(cc1NC(=O)c1ccc(Cn3cccn3)cc1)OCO2
  IC50: > 10 µM
  IC90: > 10 µM

## CCc1nc2ccc(C(=O)N3CCCCC3)cn2c1N(C)CCC(C)C
  IC50: > 9.26 µM
  IC90: > 9.26 µM

## COc1ccc(-c2ccc3c(c2)COC2(CCN(C(=O)c4ccc(F)cc4F)CC2)O3)cc1OC
  IC50: > 6.85 µM
  IC90: > 6.85 µM

## CC(CNC(=O)C1(C)CC1(Cl)Cl)N(C)c1ccccc1 (configuration not stated)
  IC50: > 10 µM
  IC90: > 10 µM

## Cc1cc(NC(=O)c2ccco2)sc1C(=O)Nc1nnc[nH]1
  IC50: > 10 µM
  IC90: > 10 µM

## Cn1ncc2c(=O)n(Cc3sc4ccccc4c3Cl)cnc21
  IC50: > 10 µM
  IC90: > 10 µM

## O=C(Nc1ccc2oc(=O)[nH]c2c1)c1cnn(-c2ccc(Cl)cc2)c1
  IC50: > 10 µM
  IC90: > 10 µM

## COc1ccc2c(c1)CCCN2Cc1nn2c(=O)cc(C)nc2s1
  IC50: > 10 µM
  IC90: > 10 µM

## COc1ccccc1CNc1cccc2cnccc12
  IC50: > 10 µM
  IC90: > 10 µM

## CC1(C(=O)NC2CCN(S(C)(=O)=O)CC2)CC1(Cl)Cl (configuration not stated)
  IC50: > 10 µM
  IC90: > 10 µM

## O=C(NCc1ccc(-n2cccn2)cc1)c1[nH]nc(C2CC2)c1Br
  IC50: 1.27 µM
  IC90: 1.52 µM

## Cc1cc(C(=O)NC2CCN(c3ncnc4sc5c(c34)CCCC5)CC2)on1
  IC50: > 10 µM
  IC90: > 10 µM

## CCCc1nc(C)c(C(=O)Nc2nccn2Cc2ccccc2)s1
  IC50: > 10 µM
  IC90: > 10 µM

## CCn1c(=O)n(CC(=O)Nc2ccc(NC(=O)NC3CC3)cc2)c2ccccc21
  IC50: > 10 µM
  IC90: > 10 µM

## COc1ccccc1-c1cc(C(=O)Nc2ccc(N3CCCC3)cc2)no1
  IC50: > 10 µM
  IC90: > 10 µM

## Clc1cncc(Cl)c1N1CCN(c2ccc(-c3cccnc3)cn2)CC1
  IC50: 0.996 µM
  IC90: > 8.54 µM
